Results: publication PMC10042540, “Targeting oncogenic KRasG13C with nucleotide-based covalent inhibitors” (eLife, 2023)

Key:
Assay in all cases: Electroporation into HeLa cells, western blot quantification
Assay type in all cases: cell-based, human
pAktS473 = conditions: for pAkt mean fold change: mean of cell lysates
Procedure, shortened: (§1)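 HeLa cells electroporated (2×35 ms, 1000 V) with 0–300 µg recombinant full-length KRas WT or G13C constructs, washed, then recovered for 24 h at 37 °C. Lysates (10 µg protein) analysed by SDS-PAGE and fluorescent western blotting, with protein levels quantified from blot signal.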

pErkT202/Y204 = conditions: for pErk mean fold change: mean of cell lysates
Procedure, shortened: as §1

pcRafS338 = conditions: for pcRaf mean fold change: mean of cell lysates
Procedure, shortened: as §1

pS6S235/236 = conditions: for pS6 mean fold change: mean of cell lysates
Procedure, shortened: as §1

“KRasG13C-edaGDP: KRasG13C covalently locked with edaGDP at Cys13” was tested, and the pAkt fold change (pAktS473; 50 µg, Cell lysate 1) was 0.89, the pAkt fold change (pAktS473; 50 µg, Cell lysate 2) was 1.23 and the “pAkt mean fold change” value (pAktS473; 50 µg) was 0.54. It also gave a pAkt fold change (pAktS473; 100 µg, Cell lysate 1) of 0.28, a pAkt fold change (pAktS473; 100 µg, Cell lysate 2) of 0.69 and a pAkt fold change (pAktS473; 100 µg, Cell lysate 3) of 1.01. For the same substance, the “pAkt mean fold change” value (pAktS473; 100 µg) was 0.66, the pAkt fold change (pAktS473; 200 µg, Cell lysate 1) was 0.45 and the pAkt fold change (pAktS473; 200 µg, Cell lysate 2) was 0.95. For the same substance, the pAkt fold change (pAktS473; 200 µg, Cell lysate 3) was 0.56, the “pAkt mean fold change” value (pAktS473; 200 µg) was 0.65 and the pAkt fold change (pAktS473; 300 µg, Cell lysate 1) was 0.63. The pAkt fold change (pAktS473; 300 µg, Cell lysate 2) was 0.97, the pAkt fold change (pAktS473; 300 µg, Cell lysate 3) was 1.17 and the “pAkt mean fold change” value (pAktS473; 300 µg) was 0.92. It also gave a pErk fold change (pErkT202/Y204; 50 µg, Cell lysate 1) of 0.82, a pErk fold change (pErkT202/Y204; 50 µg, Cell lysate 2) of 0.70 and a pErk fold change (pErkT202/Y204; 50 µg, Cell lysate 3) of 0.80. For the same substance, the “pErk mean fold change” value (pErkT202/Y204; 50 µg) was 0.77, the pErk fold change (pErkT202/Y204; 100 µg, Cell lysate 1) was 1.10 and the pErk fold change (pErkT202/Y204; 100 µg, Cell lysate 2) was 0.77. The pErk fold change (pErkT202/Y204; 100 µg, Cell lysate 3) was 0.86, the “pErk mean fold change” value (pErkT202/Y204; 100 µg) was 0.91 and the pErk fold change (pErkT202/Y204; 200 µg, Cell lysate 1) was 2.08. The pErk fold change (pErkT202/Y204; 200 µg, Cell lysate 2) was 0.84, the pErk fold change (pErkT202/Y204; 200 µg, Cell lysate 3) was 1.10 and the “pErk mean fold change” value (pErkT202/Y204; 200 µg) was 1.34. It also gave a pErk fold change (pErkT202/Y204; 300 µg, Cell lysate 1) of 2.38, a pErk fold change (pErkT202/Y204; 300 µg, Cell lysate 2) of 0.86 and a pErk fold change (pErkT202/Y204; 300 µg, Cell lysate 3) of 1.58. For the same substance, the “pErk mean fold change” value (pErkT202/Y204; 300 µg) was 1.61, the pcRaf fold change (pcRafS338; 50 µg, Cell lysate 1) was 0.75 and the pcRaf fold change (pcRafS338; 50 µg, Cell lysate 2) was 1.33. For the same substance, the pcRaf fold change (pcRafS338; 50 µg, Cell lysate 3) was 0.84, the “pcRaf mean fold change” value (pcRafS338; 50 µg) was 0.97 and the pcRaf fold change (pcRafS338; 100 µg, Cell lysate 1) was 0.89. For the same substance, the pcRaf fold change (pcRafS338; 100 µg, Cell lysate 2) was 0.78, the pcRaf fold change (pcRafS338; 100 µg, Cell lysate 3) was 1.40 and the “pcRaf mean fold change” value (pcRafS338; 100 µg) was 1.02. The pcRaf fold change (pcRafS338; 200 µg, Cell lysate 1) was 0.74, the pcRaf fold change (pcRafS338; 200 µg, Cell lysate 2) was 0.88 and the pcRaf fold change (pcRafS338; 200 µg, Cell lysate 3) was 1.21. The “pcRaf mean fold change” value (pcRafS338; 200 µg) was 0.94, the pcRaf fold change (pcRafS338; 300 µg, Cell lysate 1) was 0.57 and the pcRaf fold change (pcRafS338; 300 µg, Cell lysate 2) was 0.97. The pcRaf fold change (pcRafS338; 300 µg, Cell lysate 3) was 1.13, the “pcRaf mean fold change” value (pcRafS338; 300 µg) was 0.89 and the pS6 fold change (pS6S235/236; 50 µg, Cell lysate 1) was 0.80. The pS6 fold change (pS6S235/236; 50 µg, Cell lysate 2) was 1.31, the pS6 fold change (pS6S235/236; 50 µg, Cell lysate 3) was 0.76 and the “pS6 mean fold change” value (pS6S235/236; 50 µg) was 0.96. It also gave a pS6 fold change (pS6S235/236; 100 µg, Cell lysate 1) of 0.91, a pS6 fold change (pS6S235/236; 100 µg, Cell lysate 2) of 1.13 and a pS6 fold change (pS6S235/236; 100 µg, Cell lysate 3) of 0.75. For the same substance, the “pS6 mean fold change” value (pS6S235/236; 100 µg) was 0.93, the pS6 fold change (pS6S235/236; 200 µg, Cell lysate 1) was 1.23 and the pS6 fold change (pS6S235/236; 200 µg, Cell lysate 2) was 1.03. For the same substance, the pS6 fold change (pS6S235/236; 200 µg, Cell lysate 3) was 0.88, the “pS6 mean fold change” value (pS6S235/236; 200 µg) was 1.05 and the pS6 fold change (pS6S235/236; 300 µg, Cell lysate 1) was 0.98. The pS6 fold change (pS6S235/236; 300 µg, Cell lysate 2) was 0.98, the pS6 fold change (pS6S235/236; 300 µg, Cell lysate 3) was 0.76 and the “pS6 mean fold change” value (pS6S235/236; 300 µg) was 0.91.
